From patent EP2518159A1, “Method for determining the neurodevelopmental toxicity of a compound in vitro” (priority 2011, dated 2012)

Experiments:
Details in all cases: ES-D3 neural differentiation culture, exposed from day 3, harvested on day 4 (24h exposure); relative to DMSO control (1 = unchanged); 25 nM MeHg, 100 µM cyproconazole, 1000 µM valproic acid, 25 µM hexaconazole
Car4 = experiment: Gene expression change of Car4 in neural differentiation culture of embryonic stem cells (Affymetrix microarray)
Procedure: (§1) Murine embryonic stem cells (ESC) (ES-D3, ATCC, Rockville, MD, USA) were routinely subcultured every 2-3 days and grown as a monolayer in CM supplemented with leukemia inhibiting factor (LIF) (Chemicon, Temecula, CA, USA) at a final concentration of 1000 units/ml. The cells were maintained in a humidified atmosphere at 37°C and 5% CO2.
(§2) Differentiation of ESC into the neural lineage was carried out as described earlier (Theunissen et al., 2010). In brief, stem cell suspensions (3.75×10^4 cells/ml) were placed on ice before the initiation of the culture. Drops (20µl) containing 750 cells in CM were placed onto the inner side of the lid of a 90 cm Petri dish filled with phosphate-buffered saline (PBS) (Gibco BRL, Gaithersburg, MD) and incubated at 37 °C, 90% relative humidity and 5% CO2. After 3 days of hanging drop culture embryoid bodies (EB) had formed and were subsequently transferred to 60mm bacterial Petri dishes (Greiner Bio-one, Frickenhausen, Germany) containing CM supplemented with 0.5 µM retinoic acid (RA). On day 5, EB were plated on laminin (Roche, Basel, Switzerland) coated dishes (Corning Incorporated, Corning, NY, USA) in LS medium supplemented with 2.5 ug/ml fibronectin (Invitrogen, Carlsbad, CA, USA). One day later, on day 6, the LS medium was replaced by ITS medium. On day 7, EB were washed with phosphate buffered saline (PBS) (Gibco BRL, Gaithersburg, MD, USA) and incubated in cell dissociation buffer (Gibco BRL, Gaithersburg, MD, USA) for 3 minutes. Then EB were carefully detached from each Petri dish without dissociating the EBs and the entire content was replated on poly-L-ornithine (Sigma-Aldrich, Zwijndrecht, The Netherlands) and laminin coated dish in N2 medium supplemented with 10 ng/ml basic fibroblast growth factor (bFGF) (Srtathmann-Biotec AG, Englewood, CO, USA). The N2 medium supplemented with bFGF was replaced every other day for 7 days.
(§3) Control differentiation cultures were harvested on culture days 3, 4 and 5 (8 replicates per group). Differentiation cultures were exposed to the 3 neurodevelopmental toxicants and controls from day 3 onwards and harvested on day 4 (24h exposure) (8 replicates per group). Cells (-40-50 EB/sample) were directly collected in RNA Protect (Qiagen Benelux, Venlo, The Netherlands) to stabilize RNA, and total RNA was purified using the Qiagen RNEasy Plus Mini Kit (Qiagen Benelux, Venlo, The Netherlands) following the manufacturer's instructions. RNA quantity was determined using the NanoDrop Spectophotometer (Isogen Lifescience, de Meern, The Netherlands). RNA integrity was assessed on the 2100 Bioanalyzer (Agilent, Santa Clara, CA, USA) using the RNA 6000 Nano Chip Kit (Agilent, Santa Clara, CA, USA), and good quality RNA was used for gene expression analysis (RNA integrity number (RIN) > 8.0).

Emilin2 = experiment: Gene expression change of Emilin2 in neural differentiation culture of embryonic stem cells (Affymetrix microarray)
Procedure: as §1, §2, §3

Shisa6 = experiment: Gene expression change of Shisa6 in neural differentiation culture of embryonic stem cells (Affymetrix microarray)
Procedure: as §1, §2, §3

| SMILES | Ratio, gene expression change Car4 (Car4) | Ratio, gene expression change Emilin2 (Emilin2) | Ratio, gene expression change Shisa6 (Shisa6) |
| --- | --- | --- | --- |
| CCCCC(O)(Cn1cncn1)c1ccc(Cl)cc1Cl (stereo not drawn) [Hex, Hexaconazole] | 0.936 | 1.185 | 1.096 |
| CCCC(CCC)C(=O)[O-].[Na+] [VPA, Valproic acid sodium salt] | 1.373 | 2.063 | 0.752 |
| CC(C1CC1)C(O)(Cn1cncn1)c1ccc(Cl)cc1 (stereo not drawn) [Cyp, Cyproconazole] | 0.777 | 1.270 | 1.228 |
| [CH3][Hg][Cl] [MeHg, Methylmercury chloride] | 0.686 | 1.351 | 1.380 |
